# PubChem BioAssay (NCI)
# Values joined by “and” are separate entries in the source; they are usually repeats but may differ in a detail not shown here. Equal entries are not always repeated.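 Interpolation was linear, between the two tested concentrations surrounding the appropriate level; five concentrations were tested over 48 hours in 96-well plates. Here, GI50 denotes the concentration required for 50% inhibition of growth. At the TGI there is no net growth.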
# Columns and labels:
# Test in all cases: NCI tumour cell line growth inhibition, 48 h
# [1] = test system: CCRF-CEM leukemia
# [2] = test system: HOP-62 NSCLC
# [3] = test system: IGROV1 ovarian
# [4] = test system: NCI-H522 lung
# [5] = test system: NCI/ADR-RES ovarian
# [6] = test system: OVCAR-8 ovarian
# [7] = test system: SF-268 CNS
# [8] = test system: SF-295 CNS
# [9] = test system: SW-620 colon
# [10] = test system: U251 CNS
Compound,GI50 [1],TGI [1],GI50 [2],TGI [2],GI50 [3],TGI [3],GI50 [4],TGI [4],GI50 [5],TGI [5],GI50 [6],TGI [6],GI50 [7],TGI [7],GI50 [8],TGI [8],GI50 [9],TGI [9],GI50 [10],TGI [10]
CCCc1c(CC)c(=N)c2ccccc2n1C,> 100 µM,> 100 µM,> 100 µM,> 100 µM,> 100 µM,> 100 µM,65.6 µM,> 100 µM,> 100 µM,> 100 µM,48.9 µM,> 100 µM,> 100 µM,> 100 µM,57 µM,> 100 µM,> 100 µM,> 100 µM,47.9 µM,> 100 µM
C=C(CCCCCCCCC)CC(=O)SCCNC(=O)CCNC(=O)C(O)C(C)(C)COP(=O)(O)OP(=O)(O)OCC1OC(n2cnc3c(N)ncnc32)C(O)C1OP(=O)(O)O (stereo unspecified),,> 100 µM,,> 85.7 µM,,> 100 µM,,> 100 µM,,> 100 µM,,> 100 µM,,15.3 µM,,> 100 µM,,> 100 µM,,> 100 µM
O=C(/C=C/C12c3ccccc3C(c3ccccc31)C1C(=O)N(c3ccccc3)C(=O)C12)c1ccccc1 (stereo unspecified),1.45 µM,> 100 µM,3.23 µM,14.6 µM,2.06 µM,6.05 µM,1.59 µM,4.45 µM,2.23 µM,> 100 µM,1.79 µM,> 100 µM,8.56 µM,> 100 µM,,,2.74 µM,> 100 µM,2.48 µM,9.44 µM
CCC(=O)O[C@H]1CC[C@H]2[C@@H]3CC[C@H]4CC(=O)[C@H](C)C[C@]4(C)[C@H]3CC[C@]12C,18.8 µM,> 100 µM,37.7 µM,> 100 µM,> 60.5 µM,> 100 µM,38.4 µM,> 100 µM,38.3 µM,> 100 µM,43.1 µM,> 100 µM,> 75.7 µM,> 100 µM,20.9 µM,> 78 µM,31.9 µM,> 100 µM,34 µM,> 100 µM
Oc1ccc(C(c2ccc(O)cc2)c2ccc(Cl)cn2)cc1,14.9 µM,> 100 µM,33.7 µM,> 100 µM,0.378 µM,42 µM,2.63 µM,69.8 µM,0.0512 µM,0.284 µM,0.0346 µM,1.16 µM,25.9 µM,> 100 µM,0.403 µM,7.21 µM,60.7 µM,> 100 µM,42.3 µM,> 100 µM
CCCC(=O)Nc1cc(C(=O)N2C[C@@H]3C[C@]34C2=CC(=O)c2[nH]cc(C)c24)n(COC)c1,0.495 µM,,2.5 µM,50 µM and 8.13 µM,1.35 µM,,,3.57 µM and 2.43 µM,19.7 µM,50 µM and 47.7 µM,,9.06 µM and 5.87 µM,3.46 µM,10.6 µM and 33.3 µM,5.4 µM,50 µM and 20.4 µM,2.7 µM,50 µM and 19.9 µM,2.39 µM,20.6 µM and 6.21 µM
CCOC(=O)C1(Br)C(c2ccccc2)NC(=O)NC1(C)Br (stereo unspecified),,99.8 µM,,> 100 µM,,> 100 µM,,> 53.2 µM,28.1 µM,89.8 µM,,> 100 µM,,> 100 µM,,> 100 µM,,,,49.4 µM
CCCCCCCNc1nc(C(=O)OCC)ncc1-c1ccc(C(F)(F)F)cc1,29.5 µM,> 100 µM,55.7 µM,> 100 µM,24.7 µM,70.9 µM,31.3 µM,> 100 µM,34.5 µM,> 100 µM,40.2 µM,> 100 µM,48.2 µM,> 100 µM,26.4 µM,> 100 µM,41.5 µM,> 100 µM,34.1 µM,> 100 µM
O=C1C=C(NCCNC(=S)Nc2ccccc2)c2nccc3c2c1nc1ccccc13,> 100 µM,> 100 µM,81.7 µM,> 100 µM,56.8 µM,> 100 µM,46.8 µM,> 100 µM,> 100 µM,> 100 µM,> 100 µM,> 100 µM,53.7 µM,> 100 µM,39.7 µM,> 100 µM,32.2 µM,> 100 µM,58.9 µM,> 100 µM
O=C(c1ccc2ccccc2c1)c1c(C(F)(F)F)n([O-])c2cc(F)c(F)cc2[n+]1=O,1.33 µM,3.63 µM,5.02 µM,16.8 µM,,,,,2.93 µM,11.2 µM,,,3.36 µM,19.5 µM,2.02 µM,4.9 µM,,,,
CC1(C)CC[C@H](Nc2ncc(C(F)(F)F)c(-c3c[nH]c4c(P(C)(C)=O)c(C#N)ccc34)n2)CN1,0.143 µM,> 32 µM,0.0132 µM,6.69 µM,0.0231 µM,14.5 µM,,14.4 µM,3.18 µM,27.6 µM,0.469 µM,> 50.2 µM,1.17 µM,12.9 µM,0.0267 µM,13.5 µM,0.0225 µM,13.2 µM,0.0771 µM,23.7 µM
COc1ccc(Nc2ncc(Br)c(NCCCNC(=O)C3CCC3)n2)cc1,4.49 µM,98.1 µM,4.77 µM,44.8 µM,14.6 µM,44.5 µM,24 µM,> 100 µM,19 µM,80.5 µM,21.1 µM,> 100 µM,4.78 µM,41.6 µM,11 µM,89.4 µM,6.6 µM,> 100 µM,12.4 µM,> 100 µM
Cc1ccc(S(=O)(=O)NCCNC2=CC(=O)c3nc4ccccc4c4ccnc2c34)cc1,,,20.6 µM,61.3 µM,19.9 µM,51.9 µM,15 µM,37.3 µM,17 µM,55.4 µM,19.5 µM,72.7 µM,19.1 µM,52.3 µM,17.7 µM,39 µM,19.6 µM,97.2 µM,24.7 µM,63.9 µM
